Assay results: ChEMBL document CHEMBL1156491, “Unexpected inhibition of peptidoglycan LD-transpeptidase from Enterococcus faecium by the beta-lactam imipenem” (J Biol Chem, 2007)
≈ marks a conversion by molar mass, not a printed value. Calls of active or inactive are those of the source. No cut-off for these calls is given here.

Legend:
Enterococcus faecium [1] = assay: Antimicrobial activity against Enterococcus faecium M512 by agar dilution method after 48 hrs; assay type: functional; settings: M512, 48 h
Enterococcus faecium [2] = assay: Antimicrobial activity against Enterococcus faecium D344S by agar dilution method after 48 hrs; assay type: functional
Enterococcus faecium [3] = assay: Inhibition of Enterococcus faecium M512 LDtfm transpeptidase activity assessed as tri-aspartate-tri-aspartate-tri-aspartate multimer containing L-Lys3 to D-Asp-L-Lys3 cross links at 8 ug/ml; parameters: scale not given: the % may be the effect or the level left
Enterococcus faecium [4] = assay: Inhibition of Enterococcus faecium M512 PBP5fm transpeptidase activity assessed as lactoyl tetra-aspartate-peptide level; parameters: scale not given: the % may be the effect or the level left
Enterococcus faecium [5] = assay: Inhibition of Enterococcus faecium M512 LDtfm transpeptidase activity assessed as tri-aspartate-tetra multimer containing L-Lys3 to D-Asp-L-Lys3 cross links at 8 ug/ml; parameters: scale not given: the % may be the effect or the level left
Enterococcus faecium [6] = assay: Inhibition of Enterococcus faecium M512 PBP5fm transpeptidase activity assessed as lactoyl penta-aspartate-peptide level; parameters: scale not given: the % may be the effect or the level left
Enterococcus faecium [7] = assay: Inhibition of Enterococcus faecium M512 LDtfm transpeptidase activity assessed as tri-aspartate-tri-aspartate multimer containing L-Lys3 to D-Asp-L-Lys3 cross links at 8 ug/ml; parameters: scale not given: the % may be the effect or the level left
[8] = Inhibition of Enterococcus faecium LD-transpeptidase assessed by formation of Ac2-L-Lys-D-[14C]Ala from Ac2-L-Lys-D-Ala and D-[14C]Ala
Enterococcus faecium [9] = assay: Inhibition of Enterococcus faecium M512 PBP5fm transpeptidase activity assessed as lactoyl tripeptide level; parameters: scale not given: the % may be the effect or the level left
Enterococcus faecium [10] = assay: Inhibition of Enterococcus faecium M512 LDtfm transpeptidase activity assessed as tri-aspartate-penta-aspartate multimer containing L-Lys3 to D-Asp-L-Lys3 cross links at 8 ug/ml; parameters: scale not given: the % may be the effect or the level left
Enterococcus faecium [11] = assay: Inhibition of Enterococcus faecium M512 LDtfm transpeptidase activity assessed as tri-aspartate-penta multimer containing L-Lys3 to D-Asp-L-Lys3 cross links at 8 ug/ml; parameters: scale not given: the % may be the effect or the level left
Enterococcus faecium [12] = assay: Inhibition of Enterococcus faecium M512 LDtfm transpeptidase activity assessed as tri-aspartate tri multimer containing L-Lys3 to D-Asp-L-Lys3 cross links at 8 ug/ml; parameters: scale not given: the % may be the effect or the level left
Enterococcus faecium [13] = assay: Inhibition of Enterococcus faecium M512 PBP5fm transpeptidase activity assessed as lactoyl tetra-peptide level; parameters: scale not given: the % may be the effect or the level left
Enterococcus faecium [14] = assay: Inhibition of Enterococcus faecium M512 LDtfm transpeptidase activity assessed as tri-aspartate-tri-aspartate-penta-aspartate multimer containing L-Lys3 to D-Asp-L-Lys3 cross links at 8 ug/ml; parameters: scale not given: the % may be the effect or the level left
Enterococcus faecium [15] = assay: Inhibition of Enterococcus faecium M512 PBP5fm transpeptidase activity assessed as lactoyl tri-aspartate-peptide level; parameters: scale not given: the % may be the effect or the level left
Enterococcus faecium [16] = assay: Inhibition of Enterococcus faecium M512 LDtfm transpeptidase activity assessed as tri-aspartate-tri-aspartate-tetra multimer containing L-Lys3 to D-Asp-L-Lys3 cross links at 8 ug/ml; parameters: scale not given: the % may be the effect or the level left
Enterococcus faecium [17] = assay: Inhibition of Enterococcus faecium M512 PBP5fm transpeptidase activity assessed as lactoyl penta-peptide level; parameters: scale not given: the % may be the effect or the level left
Enterococcus faecium [18] = assay: Inhibition of Enterococcus faecium M512 LDtfm transpeptidase activity assessed as tri-aspartate-tetra-aspartate multimer containing L-Lys3 to D-Asp-L-Lys3 cross links at 8 ug/ml; parameters: scale not given: the % may be the effect or the level left
Enterococcus faecium [19] = assay: Inhibition of Enterococcus faecium M512 LDtfm transpeptidase activity assessed as tri-aspartate-tri-aspartate-tetra-aspartate multimer containing L-Lys3 to D-Asp-L-Lys3 cross links at 8 ug/ml; parameters: scale not given: the % may be the effect or the level left
Enterococcus faecium [20] = assay: Inhibition of Enterococcus faecium LD-transpeptidase assessed by formation of Ac2-L-Lys-D-[14C]Ala from Ac2-L-Lys-D-Ala and D-[14C]Ala at 0.5 ug/ml
Enterococcus faecium [21] = assay: Inhibition of Enterococcus faecium M512 PBP5fm transpeptidase activity assessed as tetra -aspartate-tetra-aspartate multimer containing D-Ala4 to D-Asp-L-Lys3 cross links at 128 ug/ml by mass spectrometry; parameters: scale not given: the % may be the effect or the level left
Enterococcus faecium [22] = assay: Inhibition of Enterococcus faecium M512 PBP5fm transpeptidase activity assessed as tetra-aspartate-tetra-aspartate-tetra-aspartate multimer containing D-Ala4 to D-Asp-L-Lys3 cross links at 128 ug/ml by mass spectrometry; parameters: scale not given: the % may be the effect or the level left
Enterococcus faecium [23] = assay: Inhibition of Enterococcus faecium M512 […] transpeptidase activity assessed as tetra-aspartate-tri multimer containing D-Ala4 to D-Asp-L-Lys3 cross links at 128 ug/ml by mass spectrometry; parameters: scale not given: the % may be the effect or the level left
Enterococcus faecium [24] = assay: Inhibition of Enterococcus faecium M512 PBP5fm transpeptidase activity assessed as tetra -aspartate-penta-aspartate multimer containing D-Ala4 to D-Asp-L-Lys3 cross links at 128 ug/ml by mass spectrometry; parameters: scale not given: the % may be the effect or the level left
Enterococcus faecium [25] = assay: Inhibition of Enterococcus faecium M512 PBP5fm transpeptidase activity assessed as tetra -aspartate-tetra -aspartate-tri-aspartate multimer containing D-Ala4 to D-Asp-L-Lys3 cross links at 128 ug/ml by mass spectrometry; parameters: scale not given: the % may be the effect or the level left
Enterococcus faecium [26] = assay: Inhibition of Enterococcus faecium M512 PBP5fm transpeptidase activity assessed as tetra-aspartate-tetra-aspartate-penta-aspartate multimer containing D-Ala4 to D-Asp-L-Lys3 cross links at 128 ug/ml by mass spectrometry; parameters: scale not given: the % may be the effect or the level left
Enterococcus faecium [27] = assay: Inhibition of Enterococcus faecium LD transpeptidase assessed as enzyme aduct at 3.4 uM by mass spectrometry
Enterococcus faecium [28] = assay: Inhibition of Enterococcus faecium M512 PBP5fm transpeptidase activity assessed as tetra -aspartate-penta multimer containing D-Ala4 to D-Asp-L-Lys3 cross links at 128 ug/ml by mass spectrometry; parameters: scale not given: the % may be the effect or the level left
Enterococcus faecium [29] = assay: Inhibition of Enterococcus faecium M512 PBP5fm transpeptidase activity assessed as tetra-aspartate-tri-aspartate multimer containing D-Ala4 to D-Asp-L-Lys3 cross links at 128 ug/ml by mass spectrometry; parameters: scale not given: the % may be the effect or the level left
Enterococcus faecium [30] = assay: Inhibition of Enterococcus faecium M512 PBP5fm transpeptidase activity assessed as tetra -aspartate-tetra multimer containing D-Ala4 to D-Asp-L-Lys3 cross links at 128 ug/ml by mass spectrometry; parameters: scale not given: the % may be the effect or the level left

Row | SMILES | MIC (Enterococcus faecium [1]) [µg/mL] | MIC (Enterococcus faecium [2]) [µg/mL] | Activity (Enterococcus faecium [4]) [%] | Activity (Enterococcus faecium [6]) [%] | EC50 [8] [µg/mL] | Activity (Enterococcus faecium [9]) [%] | Activity (Enterococcus faecium [13]) [%] | Activity (Enterococcus faecium [15]) [%] | Activity (Enterococcus faecium [17]) [%] | Activity (Enterococcus faecium [20]) | other results
1 | CC1C(S[C@@H]2CN[C@H](C(=O)Nc3cccc(C(=O)O)c3)C2)=C(C(=O)O)N2C(=O)[C@H]([C@H](C)O)[C@@H]12 (some centres not stated) [ETRAPENEM] | 16 (≈ 33.6 µM) | 1 (≈ 2.1 µM) | – | – | – | – | – | – | – | – | –
2 | CC1(C)S[C@@H]2[C@H](NC(=O)[C@H](N)c3ccccc3)C(=O)N2[C@H]1C(=O)O [AMPICILLIN] | > 2000 | 0.06 (≈ 0.172 µM) | 10.6 | 3.7 | > 3200 | 7 | 0.5 | 18.4 | 1.3 | – | Activity (Enterococcus faecium [3]): 6.1%; Activity (Enterococcus faecium [5]): 3.7%; Activity (Enterococcus faecium [7]): 18.7%; Activity (Enterococcus faecium [10]): 6.1%; Activity (Enterococcus faecium [11]): 6.8%; Activity (Enterococcus faecium [12]): 2.8%; Activity (Enterococcus faecium [14]): 1.8%; Activity (Enterococcus faecium [16]): 3%; Activity (Enterococcus faecium [18]): 6.8%; Activity (Enterococcus faecium [19]): 2.7%
3 | CO/N=C(\C(=O)N[C@@H]1C(=O)N2C(C(=O)O)=C(CSc3nc(=O)c(O)nn3C)CS[C@H]12)c1csc(N)n1 [CEFTRIAXONE] | 128 (≈ 231 µM) | 2 (≈ 3.61 µM) | – | – | 19 (≈ 34.3 µM) | – | – | – | – | 200 µg/mL | –
4 | CC(O)[C@H]1C(=O)N2C(C(=O)O)=C(S[C@@H]3CN[C@H](C(=O)N(C)C)C3)[C@H](C)[C@H]12 (single isomer, unassigned) [MEROPENEM] | 8 (≈ 20.9 µM) | 1 (≈ 2.61 µM) | – | – | – | – | – | – | – | – | –
5 | CC(O)[C@H]1C(=O)N2C(C(=O)O)=C(SCCNC=N)C[C@H]12 (single isomer, unassigned) [IMIPENEM ANHYDROUS] | 0.5 (≈ 1.67 µM) | 0.25 (≈ 0.835 µM) | 3 | 5.4 | 0.077 (≈ 0.257 µM) | 1.4 | 2.2 | 4.5 | 2.8 | Active | Activity (Enterococcus faecium [21]): 12%; Activity (Enterococcus faecium [22]): 1.6%; Activity (Enterococcus faecium [23]): 0.9%; Activity (Enterococcus faecium [24]): 11.9%; Activity (Enterococcus faecium [25]): 24.7%; Activity (Enterococcus faecium [26]): 3.3%; Activity (Enterococcus faecium [27]): Active; Activity (Enterococcus faecium [28]): 0.8%; Activity (Enterococcus faecium [29]): 23.8%; Activity (Enterococcus faecium [30]): 1.7%
